This note sets out measurements from patent publication US20240246935A1 (Plexium, Inc., priority 2021, published 2024).

One test deals with IKZF1 (Ikaros). The test can be described thus: IKZF1 reporter degradation assay (HEK 293T IKZF1-mNeonGreen reporter cell line). The class given is cell-based, human. To be noted: HEK 293T IKZF1 reporter cells, 24 hour incubation. From the text:
(§1) Polycistronic plasmids were constructed for the mammalian expression of fluorescent reporter fusions of human transcription factors IKZF1 (Ikaros), IKZF2 (Helios), and IKZF3 (Aiolos). The respective protein sequences had their C-terminal end joined to a GGGGS linker repeated three times followed by mNeonGreen, P2A sequence, and mScarlet. The DNA sequences of the open reading frames are as follows:
(§2) IKZF1, IKZF2, and IKZF3 constructs were cloned into the UCOE Hygromycin expression vectors (Millipore Sigma). Reporter constructs were transfected using cationic lipid reagents into adherent HEK 293T cells and stable integrants were selected by treatment with 200 μg/mL hygromycin B. Clonal populations were obtained from the population of stable integrants either by limiting dilution or fluorescence activated cell sorting.
(§3) The clonal stable cell lines were maintained under constant 200 μg/mL hygromycin B selection while being passaged for use in the degradation assays. […] The fluorescence intensity of the IKZF1/2/3-mNeonGreen (FITC channel) and mScarlet (PE channel) reporters were routinely analyzed by flow cytometry to confirm consistent expression levels between experiments.
(§4) The IKZF1/IKZF2/IKZF3 degradation assays were carried out by harvesting the HEK 293T reporter cell lines and resuspending the cells in media formulated for reduced background fluorescence (FluoroBrite; Thermo Fisher). The respective cell lines were seeded at a density of 4000 cells/well into black-walled 384-well optical grade assay tissue culture plates. The cells were incubated overnight at 37° C. to allow for attachment to the assay plate. Dilutions of the compounds were prepared in DMSO from 10 mM compound stocks. The assay plates were treated with appropriate concentrations of the compounds by dispensing the DMSO dilutions in quadruplicate wells with an upper limit of 0.5% final DMSO.
(§5) After 24 hour incubation with the compounds, the assay plates were imaged on an ImageXpress Pico microscopy system (cells maintained at 37° C. during imaging) to obtain the fluorescent readouts. The assay plates were imaged in the FITC and Tetramethylrhodamine (TRITC) channels to obtain the mNeonGreen fluorescence intensity (reporter degradation data) and mScarlet fluorescence intensity (for cell segmentation). 293T-IKZF1 and 293T-IKZF3 reporter cell lines were imaged with exposures of 500 milliseconds (ms) for both FITC and TRITC channels, while the 293T-IKZF2 reporter cell line was imaged with exposures of 1000 ms for FITC and 1250 ms for TRITC. The resulting data was analyzed with Cell Reporter Xpress software using the 2-channel cell scoring analysis with a “percent positive” readout. The TRITC channel was selected for the “nuclei” segmentation with a threshold of 20 while the FITC channel was selected for the “Marker 1” segmentation and a threshold of 100 for the IKZF1 and IKZF3 reporter lines. […] The minimum segmentation width was set to 6 micrometers and the maximum segmentation width was set to 15 micrometers for all cell lines. The DCs calculations were determined by regression to best fit four-parameter logistic curves using GraphPad Prism.

The target in a further test is GSPT1 (Homo sapiens (Human), UniProt P15170+Q96SW2). The test is described as follows: GSPT1 reporter degradation assay (HEK293 hGSPT1 HiBiT-tagged cells). The format is cell-based. To be noted: 24 hour incubation. The method, then:
HEK293_hGSPT1_HiBiT-tagged cells were generated using CRISPR-Cas12a technology. Briefly, ˜400,000 HEK293 cells were transiently co-transfected with precomplexed ribonuclear proteins (RNPs) consisting of 80 pmol of crRNA (IDT), 62 pmol of Cas12a protein (IDT), 3 μg of ssODN donor (IDT; AltR® modifications), 78 pmol of electroporation enhancer (IDT), and 200 ng of pMaxGFP (Lonza). The transfection was performed via nucleofection (Lonza, 4D-Nucleofector X-unit) using solution P3 and program CM-130 in a (20 μL) cuvette. Five days post-nucleofection, cells were single-cell-sorted for GFP+(transfected) cells by FACs in 96-well plates and clonally selected. Clones were screened and verified for the desired modification via targeted deep sequencing using gene-specific primers with partial Illumina adapter overhangs as previously described. In brief, clonal cell pellets were harvested, lysed, and used to generate gene-specific amplicons with partial Illumina adapters in PCR #1. Amplicons were indexed in PCR #2 and pooled with other targeted amplicons for other loci to create sequence diversity. Additionally, 10% PhiX sequencing control V3 (Illumina) was added to the pooled amplicon library prior to running the sample on a Miseq Sequencer System (Illumina) to generate paired 2×250 bp reads. Samples were demultiplexed using the index sequences, fastq files were generated, and NGS analysis was performed using CRIS.py. Final clones were authenticated using the PowerPlex fusion system (Promega) and tested negative for mycoplasma by the MycoAlert™Plus mycoplasma detection kit (Lonza).
Editing construct sequences and screening primers are outlined below (sequence from 5′ to 3′). hGSPT1Cas12acrRNA, CAGE635.GSPT1.g1: […] (SEQ ID NO: 4); CAGE635.g1.anti.ssODN: ttcctcacagtattgtgcagggtcatcaagaaaatgctta[…] CAGCCGCTCACgtcCttctctggaaccagtttcagaacttttccaattgcaatggtcttacctagaaatgaaattttaa (HiBiT tag and silent blocking modifications to prevent Cas12a recutting after integration are in upper case) (SEQ ID NO: 5); CAGE635.hGSPT1.DS.F: […] (SEQ ID NO: 6); CAGE635.hGSPT1.DS.R: GTGAA GTAGGCTTCTGCAGTC (SEQ ID NO: 7).
The GSPT1 degradation assay was carried out by harvesting the HEK 293T reporter cell lines and resuspending the cells in media formulated for reduced background fluorescence (FluoroBrite; Thermo Fisher). The respective cell lines were seeded at a density of 8,000 cells/well into white-opaque 384-well optical grade assay tissue culture plates (Greiner 781080-20). The cells were incubated overnight at 37° C. to allow for attachment to the assay plate. Dilutions of the compounds were prepared in DMSO from 10 mM compound stocks. Test compounds were added in a 10-point dilution series (typically 10 μM to […]) using a TECAN D300e Digital Dispenser with an upper limit of 0.5% final DMSO. Plates were centrifuged at 320×g for 2 minutes at room temperature, and subsequently incubated at 37° C.
After 24 hour incubation with the compounds, the plates were allowed to cool to room temperature for 10 minutes. 30 μL of HiBiT lytic buffer+1:50 HiBiT substrate Solution were added to each well. Plates were centrifuged at 320×g for 2 minutes at room temperature and then incubated with shaking at room temperature for 10 minutes covered with foil. Plates were read on a CLARIOstar microplate reader (BMG LabTech), measuring at 450 nm (donor emission) and 610 nm or 630 nm (acceptor emission). The DC50 values were determined by regression to best fit four-parameter logistic curves using GraphPad Prism.
(In general: With HiBiT, luminescence reflects the tagged protein that the partner subunit can reach.)

For a further test, the system named is IKZF3 (Aiolos). The test is described as follows: IKZF3 reporter degradation assay (HEK 293T IKZF3-mNeonGreen reporter cell line). Conditions: HEK 293T IKZF3 reporter cells, 24 hour incubation. The format is cell-based, human.
Excerpt: as §1, §2, §3, §4, §5

Another test deals with IKZF2 (Helios). The test is described as follows: IKZF2 reporter degradation assay (HEK 293T IKZF2-mNeonGreen reporter cell line). The class given is cell-based, human. Conditions: 24 hour incubation; for IKZF2 % Degradation @ 1 μM: 1 μM compound. The method, boiled down:
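HEK 293T lines stably expressing each IKZF-GGGGS×3-mNeonGreen-P2A-mScarlet reporter, 4000 cells/well in FluoroBrite medium, treated with compound (≤0.5% DMSO) for 24 h at 37 °C. Imaging measured percent mNeonGreen-positive cells, with mScarlet used for segmentation; DC50 from four-parameter logistic fit.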

Sequence of GSPT1 (P15170 whole entry): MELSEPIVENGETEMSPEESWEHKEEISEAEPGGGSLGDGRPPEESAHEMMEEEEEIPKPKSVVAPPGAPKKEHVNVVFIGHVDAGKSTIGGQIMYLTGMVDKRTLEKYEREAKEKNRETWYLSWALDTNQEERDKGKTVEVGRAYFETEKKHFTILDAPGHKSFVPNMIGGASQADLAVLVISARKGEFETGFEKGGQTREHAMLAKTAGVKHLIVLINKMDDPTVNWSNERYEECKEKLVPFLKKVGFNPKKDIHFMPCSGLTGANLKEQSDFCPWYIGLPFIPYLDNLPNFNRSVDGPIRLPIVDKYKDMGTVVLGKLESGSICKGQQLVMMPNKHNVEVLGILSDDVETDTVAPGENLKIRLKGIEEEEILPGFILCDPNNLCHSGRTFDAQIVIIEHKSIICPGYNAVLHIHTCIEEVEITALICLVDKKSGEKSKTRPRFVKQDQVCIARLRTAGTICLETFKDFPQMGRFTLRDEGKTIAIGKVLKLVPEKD
Sequence of GSPT1 (Q96SW2 whole entry): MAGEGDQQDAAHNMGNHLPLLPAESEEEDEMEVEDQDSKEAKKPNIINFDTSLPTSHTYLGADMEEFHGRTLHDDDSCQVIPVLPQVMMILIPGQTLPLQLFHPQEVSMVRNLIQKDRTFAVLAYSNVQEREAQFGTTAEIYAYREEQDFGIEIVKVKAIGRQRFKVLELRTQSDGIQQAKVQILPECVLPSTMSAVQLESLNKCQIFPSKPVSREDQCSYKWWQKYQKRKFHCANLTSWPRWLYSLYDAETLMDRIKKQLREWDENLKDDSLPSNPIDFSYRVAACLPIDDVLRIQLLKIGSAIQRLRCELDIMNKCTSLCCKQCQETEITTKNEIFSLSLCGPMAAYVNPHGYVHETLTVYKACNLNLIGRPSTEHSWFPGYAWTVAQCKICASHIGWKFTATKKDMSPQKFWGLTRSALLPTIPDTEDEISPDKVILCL
Sequence of GSPT1 (Q16531 whole entry partner): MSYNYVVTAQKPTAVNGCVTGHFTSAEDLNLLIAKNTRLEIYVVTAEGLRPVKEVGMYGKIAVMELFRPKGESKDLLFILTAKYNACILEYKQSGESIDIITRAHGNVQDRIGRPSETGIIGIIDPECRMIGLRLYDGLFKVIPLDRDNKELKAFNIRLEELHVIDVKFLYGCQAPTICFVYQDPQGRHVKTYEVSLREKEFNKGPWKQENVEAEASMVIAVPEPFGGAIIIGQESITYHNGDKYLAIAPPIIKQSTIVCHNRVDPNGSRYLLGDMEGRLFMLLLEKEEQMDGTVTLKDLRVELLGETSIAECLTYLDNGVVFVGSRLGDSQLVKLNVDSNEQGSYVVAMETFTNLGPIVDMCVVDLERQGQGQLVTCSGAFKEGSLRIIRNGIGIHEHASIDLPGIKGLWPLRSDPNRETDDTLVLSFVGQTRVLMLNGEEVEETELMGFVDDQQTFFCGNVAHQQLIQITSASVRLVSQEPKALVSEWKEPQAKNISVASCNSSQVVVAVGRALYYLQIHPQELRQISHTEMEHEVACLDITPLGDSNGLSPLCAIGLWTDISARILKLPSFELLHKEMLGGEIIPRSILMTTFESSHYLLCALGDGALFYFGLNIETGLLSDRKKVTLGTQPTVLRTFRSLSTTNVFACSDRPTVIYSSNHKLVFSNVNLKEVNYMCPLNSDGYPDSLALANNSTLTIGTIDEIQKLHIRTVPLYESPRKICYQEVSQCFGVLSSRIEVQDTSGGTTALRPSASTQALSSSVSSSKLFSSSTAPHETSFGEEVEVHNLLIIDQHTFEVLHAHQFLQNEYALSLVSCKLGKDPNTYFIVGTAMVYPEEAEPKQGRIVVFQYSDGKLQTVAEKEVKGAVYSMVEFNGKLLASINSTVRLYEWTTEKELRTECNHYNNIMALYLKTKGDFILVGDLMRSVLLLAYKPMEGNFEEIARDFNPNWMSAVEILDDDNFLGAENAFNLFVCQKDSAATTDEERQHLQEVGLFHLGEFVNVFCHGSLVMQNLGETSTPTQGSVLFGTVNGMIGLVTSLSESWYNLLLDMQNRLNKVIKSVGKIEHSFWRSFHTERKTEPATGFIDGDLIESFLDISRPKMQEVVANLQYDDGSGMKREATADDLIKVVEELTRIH

What is called DC50 is the midpoint of the concentration-degradation curve. Take `O=C1CC[C@H](N2Cc3cc(O[C@H]4CCCC[C@@H]4N4CC(c5ccccc5)C4)ccc3C2=O)C(=O)N1` [Compound 10, (S)-3-(1-oxo-5-(((1S,2S)-2-(3-phenylazetidin-1-yl)cyclohexyl)oxy)isoindolin-2-yl)piperidine-2,6-dione]: the 50% degradation concentration (DC50) was more than 30 µM with IKZF1 (Ikaros), more than 30 µM at GSPT1, more than 30 µM in the test on IKZF3 (Aiolos) and 6 nM in the test with IKZF2 (Helios) (HEK 293T IKZF2 reporter cells). Also, the “IKZF2 % Degradation @ 1 μM” value with IKZF2 (Helios) (HEK 293T IKZF2 reporter cells) is given as 78.7%.
For `O=C1CCC(N2Cc3cc(O[C@@H]4CCCC[C@@H]4N4CC(c5ccccc5)C4)ccc3C2=O)C(=O)N1` (stereo partly drawn) [Compound 13, 3-(1-oxo-5-(((1R,2S)-2-(3-phenylazetidin-1-yl)cyclohexyl)oxy)isoindolin-2-yl)piperidine-2,6-dione], the 50% degradation concentration (DC50) is more than 30 µM in the test with IKZF1 (Ikaros), more than 30 µM with IKZF3 (Aiolos) and more than 30000 nM with IKZF2 (Helios) (HEK 293T IKZF2 reporter cells).
Regarding `O=C1CCC(N2Cc3cc(O[C@H]4CCCC[C@@H]4N4CC(c5ccccc5)C4)ccc3C2=O)C(=O)N1` (stereo partly drawn) [Compound 127, 3-(1-oxo-5-(((1S,2S)-2-(3-phenylazetidin-1-yl)cyclohexyl)oxy)isoindolin-2-yl)piperidine-2,6-dione], on GSPT1, the 50% degradation concentration (DC50) was more than 30 µM. The “IKZF2 % Degradation @ 1 μM” value in the test with IKZF2 (Helios) (HEK 293T IKZF2-mNeonGreen reporter) amounted to 77.9%.
Take `O=C1CCC(N2Cc3cc(O[C@H]4CCCC[C@@H]4N4CC(c5ccccc5F)C4)ccc3C2=O)C(=O)N1` (stereo in doubt) [Compound 27]: the half-maximal degradation concentration (DC50) with IKZF1 (Ikaros) was more than 30 µM; with IKZF3 (Aiolos) it was more than 30 µM; with IKZF2 (Helios) (HEK 293T IKZF2 reporter cells), 5 nM. The “IKZF2 % Degradation @ 1 μM” value in the test with IKZF2 (Helios) (HEK 293T IKZF2 reporter cells) stood at 82.1%.
Regarding `O=C1CCC(N2Cc3cc(O[C@H]4CCCC[C@@H]4N4CC(c5ccc(-n6cccn6)cc5)C4)ccc3C2=O)C(=O)N1` (stereo partly drawn) [Compound 31, 3-(5-(((1S,2S)-2-(3-(4-(1H-pyrazol-1-yl)phenyl)azetidin-1-yl)cyclohexyl)oxy)-1-oxoisoindolin-2-yl)piperidine-2,6-dione], the 50% degradation concentration (DC50) in the test on IKZF1 (Ikaros) was more than 30 µM; in the test with IKZF3 (Aiolos) it was more than 30 µM; in the test with IKZF2 (Helios) (HEK 293T IKZF2 reporter cells) it was 0.5 nM. Besides, in the test on IKZF2 (Helios) (HEK 293T IKZF2 reporter cells), the “IKZF2 % Degradation @ 1 μM” value was found to be 83.3%.
As for `COc1ccccc1C1CN([C@H]2CCCC[C@@H]2Oc2ccc3c(c2)CN(C2CCC(=O)NC2=O)C3=O)C1` (stereo partly drawn) [Compound 19, 3-(5-(((1S,2S)-2-(3-(2-methoxyphenyl)azetidin-1-yl)cyclohexyl)oxy)-1-oxoisoindolin-2-yl)piperidine-2,6-dione], the figures for the DC50 in the test on IKZF1 (Ikaros), in the test with IKZF3 (Aiolos) and with IKZF2 (Helios) (HEK 293T IKZF2 reporter cells) were more than 30 µM, more than 30 µM and 4 nM, respectively. Also, the “IKZF2 % Degradation @ 1 μM” value with IKZF2 (Helios) (HEK 293T IKZF2 reporter cells) was 84.5%.
For `O=C1CCC(N2Cc3cc(O[C@H]4CCCC[C@@H]4N4CCC(c5ccccc5)C4)ccc3C2=O)C(=O)N1` (stereo partly drawn) [Compound 1, 3-(1-oxo-5-(((1S,2S)-2-(3-phenylpyrrolidin-1-yl)cyclohexyl)oxy)isoindolin-2-yl)piperidine-2,6-dione], the half-maximal degradation concentration (DC50) in the test on IKZF1 (Ikaros) is more than 30 µM; on GSPT1 it was more than 30 µM; in the test with IKZF3 (Aiolos), more than 30 µM; with IKZF2 (Helios) (HEK 293T IKZF2 reporter cells), 24 nM. The “IKZF2 % Degradation @ 1 μM” value in the test with IKZF2 (Helios) (HEK 293T IKZF2 reporter cells) was 79.9%.
As to `O=C1CCC(N2Cc3cc(O[C@H]4CCCC[C@@H]4N4CC(c5ccccc5Cl)C4)ccc3C2=O)C(=O)N1` (stereo partly drawn) [Compound 15, 3-(5-(((1S,2S)-2-(3-(2-chlorophenyl)azetidin-1-yl)cyclohexyl)oxy)-1-oxoisoindolin-2-yl)piperidine-2,6-dione], the DC50 is more than 30 µM in the test on IKZF1 (Ikaros), more than 30 µM with IKZF3 (Aiolos) and 4 nM in the test with IKZF2 (Helios) (HEK 293T IKZF2 reporter cells). In addition, the “IKZF2 % Degradation @ 1 μM” value in the test on IKZF2 (Helios) (HEK 293T IKZF2 reporter cells) is given as 78.9%.
As for `O=C1CCC(N2Cc3cc(O[C@H]4CCCC[C@@H]4N4CC(c5ccc(F)c(F)c5)C4)ccc3C2=O)C(=O)N1` (stereo partly drawn) [Compound 23, 3-(5-(((1S,2S)-2-(3-(3,4-difluorophenyl)azetidin-1-yl)cyclohexyl)oxy)-1-oxoisoindolin-2-yl)piperidine-2,6-dione], the DC50 in the test on IKZF1 (Ikaros) was more than 30 µM; on GSPT1, more than 30 µM; in the test with IKZF3 (Aiolos), more than 30 µM; with IKZF2 (Helios) (HEK 293T IKZF2 reporter cells), 5 nM. Further, the “IKZF2 % Degradation @ 1 μM” value with IKZF2 (Helios) (HEK 293T IKZF2 reporter cells) is 79.2%.
Consider `O=C1CCC(N2Cc3cc(O[C@@H]4CCCC[C@H]4N4CC(c5ccccc5)C4)ccc3C2=O)C(=O)N1` (stereo partly drawn) [Compound 11, 3-(1-oxo-5-(((1R,2R)-2-(3-phenylazetidin-1-yl)cyclohexyl)oxy)isoindolin-2-yl)piperidine-2,6-dione], for which the figures for the 50% degradation concentration (DC50) with IKZF1 (Ikaros), with IKZF3 (Aiolos) and in the test on IKZF2 (Helios) (HEK 293T IKZF2 reporter cells) were more than 30 µM, more than 30 µM and more than 30000 nM, respectively.
Take `O=C1CC[C@H](N2Cc3cc(O[C@@H]4CCCC[C@H]4N4CC(c5ccccc5)C4)ccc3C2=O)C(=O)N1` [Compound 14, (S)-3-(1-oxo-5-(((1R,2R)-2-(3-phenylazetidin-1-yl)cyclohexyl)oxy)isoindolin-2-yl)piperidine-2,6-dione]: the half-maximal degradation concentration (DC50) with IKZF1 (Ikaros) was more than 30 µM; with IKZF3 (Aiolos), more than 30 µM; in the test with IKZF2 (Helios) (HEK 293T IKZF2 reporter cells) it was 292 nM. In addition, the “IKZF2 % Degradation @ 1 μM” value in the test on IKZF2 (Helios) (HEK 293T IKZF2 reporter cells) worked out at 33.5%.
